Common to all, as to assay type: functional
Test [1] concerns Mycobacterium tuberculosis. Briefly: Antitubercular activity against wild-type isoniazid-resistant Mycobacterium tuberculosis harboring katG mutant after 5 days by microplate alamar blue assay.
Test [2] has as its system Mycobacterium tuberculosis. Briefly: Antitubercular activity against Mycobacterium tuberculosis SR 2571/0215 harboring katG mutant after 5 days by microplate alamar blue assay. For orientation: The colour change of resazurin is a common sign of viable cells or microbes.
Test [3] has as its system Mycobacterium tuberculosis. Briefly: Antitubercular activity against isoniazid and rifampicin-resistant Mycobacterium tuberculosis T113/09 harboring katG and rpoB mutant after 5 days by microplate alamar blue assay.

Converted amounts (≈) assume the structure as drawn. A value given as a limit tells only on which side of the number the result lay.

In general, MIC refers to the least concentration at which growth counts as inhibited. A low value points to a more susceptible organism. `CC(=O)Nc1ccc(Cl)cc1C(F)(F)C(=O)NNC(=O)c1ccncc1` gave an MIC in test [1] of 136.6 µM (≈ 52.3 µg/mL).
As to `CC(=O)Nc1ccccc1C(=O)C(=O)NNC(=O)c1ccncc1`, the MIC turned out to be 38.3 µM (≈ 12.5 µg/mL) in test [2], 38.3 µM (≈ 12.5 µg/mL) in test [3] and 19.2 µM (≈ 6.27 µg/mL) in test [1].
Regarding `CC(=O)Nc1ccccc1C(F)(F)C(=O)NNC(=O)c1ccncc1`, the results for the minimum inhibitory concentration (MIC) in test [2], in test [3] and in test [1] were 287.4 µM (≈ 100 µg/mL), 287.4 µM (≈ 100 µg/mL) and 143.7 µM (≈ 50.1 µg/mL), respectively.
Regarding `CC(=O)Nc1ccc(F)cc1C(F)(F)C(=O)NNC(=O)c1ccncc1`, the minimal inhibitory concentration (MIC) in test [1] came out at 130.9 µM (≈ 47.9 µg/mL).
On to `O=C(CCl)Nc1ccccc1C(=O)C(=O)NNC(=O)c1ccncc1`, for which the minimum inhibitory concentration (MIC) in test [2] worked out at 69.4 µM (≈ 25 µg/mL); in test [3], 34.7 µM (≈ 12.5 µg/mL).
Consider `CC(=O)Nc1ccc(C)cc1C(F)(F)C(=O)NNC(=O)c1ccncc1`, for which the minimal inhibitory concentration (MIC) is greater than 276.2 µM in test [2], 276.2 µM (≈ 100 µg/mL) in test [3] and 138.1 µM (≈ 50 µg/mL) in test [1].
For the molecule `CC(=O)Nc1ccc(C)cc1C(=O)C(=O)NNC(=O)c1ccncc1`, the minimum inhibitory concentration (MIC) in test [2] and in test [3] was 36.7 µM (≈ 12.5 µg/mL) each time.
As for `NNC(=O)c1ccncc1` [ISONIAZID], the MIC in test [2] is 116.8 µM (≈ 16 µg/mL); in test [3], 58.4 µM (≈ 8.01 µg/mL); in test [1] it was greater than 80 µM.

The record behind these values is ChEMBL document CHEMBL4196010, “New hydrazides derivatives of isoniazid against Mycobacterium tuberculosis: Higher potency and lower hepatocytotoxicity” (Eur J Med Chem, 2018).
